Here are results for eight molecules from US12180207B2 (ARRAY BIOPHARMA INC., priority 2018, dated 2024).

For assay [1], the target named is dephosphorylated FGFR1 (SEQ ID NO: 1, amino acids 458 to 765) (Homo sapiens (Human), UniProt P11362). The assay can be described thus: FGFR enzyme binding assay (HTRF tracer displacement), FGFR1. The following applies: 5 nM dephosphorylated FGFR1, average of multiple determinations if made. As to the method: (§1) The potency of compounds inhibiting human isoforms of FGFR kinase was determined using Life Technologies' Homogeneous Time Resolved Fluorescence (HTRF)-based binding assay technology. […] After a 60 minute incubation at 22° C., the extent of tracer displacement was determined using a PerkinElmer EnVision multimode plate reader via HTRF dual wavelength detection, and the percent of control (POC) was calculated using a ratiometric emission factor. One hundred POC was determined using no test compound, and 0 POC was determined in the presence of 1 μM of an appropriate control inhibitor.
Chain of dephosphorylated FGFR1 (SEQ ID NO: 1, amino acids 458 to 765) (P11362 458-765): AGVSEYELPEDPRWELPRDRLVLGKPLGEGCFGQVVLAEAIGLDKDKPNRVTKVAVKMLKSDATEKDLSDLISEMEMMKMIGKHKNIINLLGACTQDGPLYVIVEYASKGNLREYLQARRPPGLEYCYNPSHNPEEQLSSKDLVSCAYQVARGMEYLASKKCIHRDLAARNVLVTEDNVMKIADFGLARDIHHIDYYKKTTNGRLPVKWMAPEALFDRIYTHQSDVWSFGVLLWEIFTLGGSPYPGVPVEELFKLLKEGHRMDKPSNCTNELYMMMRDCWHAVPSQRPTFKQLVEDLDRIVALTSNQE
(In TR-FRET formats the signal depends on donor and acceptor labels being close together.)

For assay [2], the target named is phosphorylated FGFR3 (SEQ ID NO: 5, amino acids 449 to 759) (Homo sapiens (Human), UniProt P22607). As to the kind of experiment: FGFR enzyme binding assay (HTRF tracer displacement), FGFR3. The following applies: 5 nM phosphorylated FGFR3, average of multiple determinations if made. As to the method: as §1
Chain of phosphorylated FGFR3 (SEQ ID NO: 5, amino acids 449 to 759) (P22607 449-759): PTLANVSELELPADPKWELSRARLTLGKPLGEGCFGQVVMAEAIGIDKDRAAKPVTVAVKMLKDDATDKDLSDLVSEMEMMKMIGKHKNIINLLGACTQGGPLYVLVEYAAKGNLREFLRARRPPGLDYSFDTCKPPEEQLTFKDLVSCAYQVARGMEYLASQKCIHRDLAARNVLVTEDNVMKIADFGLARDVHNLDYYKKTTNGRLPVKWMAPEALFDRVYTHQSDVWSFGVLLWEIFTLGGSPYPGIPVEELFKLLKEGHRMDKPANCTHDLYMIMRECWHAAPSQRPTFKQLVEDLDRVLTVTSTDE
In assay [3] the target is recombinant human FGFR1 catalytic domain (amino acids 308-731) (Homo sapiens (Human), UniProt P11362). As to the kind of experiment: FGFR1 enzyme activity assay (LanthaScreen TR-FRET). The assay is classed as biochemical. The following applies: 20 min incubation at 22° C., average of multiple determinations if made, read-out: FGFR1 Enz FRET IC50. How it is done:
FGFR1 kinase activity was measured by the Invitrogen LanthaScreen™ Assay technology which directly measures the amount of substrate phosphorylation by Time-resolved fluorescence energy transfer (TR-FRET) using a fluorescently-labeled peptide and Europium-labeled antibody. Briefly, […] His-tagged recombinant human FGFR1 catalytic domain (amino acids 308-731) (Life Technologies Cat. No. PR4660A) was incubated with 100 nM Alexa Fluor® 647-Poly-GT Peptide Substrate (Life Technologies Cat. No. PV5836) and […] ATP along with test compound in a buffer consisting of 250 mM HEPES, 25 mM MgCl2, 0.05% TritonX-100, pH 7.5, and 2% DMSO. […] After a 20 minutes incubation at 22° C., an equal volume of 2 nM LanthaScreen® Eu-PY20 Antibody (Life Technologies Cat. No. PV5691) and 10 mM EDTA was added to quench the kinase reaction and start the detection reaction. After an additional 60 minute incubation at 22° C., the reaction was measured using a PerkinElmer EnVision multimode plate reader via TR-FRET dual wavelength detection, and the percent of control (POC) calculated using a ratiometric emission factor. 100 POC was determined using no test compounds and 0 POC was determined using no enzyme. The POC values were fit to a 4-parameter logistic curve as a function of the concentration of the compound, and the IC50 value is the point where the curve crosses 50 POC.

The target of assay [4] is recombinant human FGFR2 cytoplasmic domain (amino acids 403-822) (Homo sapiens (Human), UniProt P21802). As to the kind of experiment: FGFR2 enzyme activity assay (LanthaScreen TR-FRET). Particulars: 15 μM ATP, 20 min incubation at 22° C., average of multiple determinations if made, read-out: FGFR2 Enz FRET IC50. The assay is classed as biochemical. How it is done: FGFR2 kinase activity was measured by the Invitrogen LanthaScreen™ Assay technology which directly measures the amount of substrate phosphorylation by TR-FRET using a fluorescently-labeled peptide and Europium-labeled antibody. Briefly, […] His-tagged recombinant human FGFR2 cytoplasmic domain (amino acids 403-822) (Life Technologies Cat. No. PR5332A) was incubated with 100 nM Alexa Fluor® 647-Poly-GT Peptide Substrate (Life Technologies Cat. No. PV5836) and 15 μM ATP along with test compound in a buffer consisting of 250 mM HEPES, 25 mM MgCl2, 0.05% TritonX-100, pH 7.5, and 2% DMSO. […] After a 20 minute incubation at 22° C., an equal volume of 2 nM LanthaScreen® Eu-PY20 Antibody (Life Technologies Cat. No. PV5691) and 10 mM EDTA were added to quench the kinase reaction and start the detection reaction. After an additional 60 minute incubation at 22° C., the reaction was measured using a PerkinElmer EnVision multimode plate reader via TR-FRET dual wavelength detection, and the percent of control (POC) calculated using a ratiometric emission factor. 100 POC was determined using no test compounds and 0 POC was determined using no enzyme. The POC values were fit to a 4-parameter logistic curve as a function of the concentration of the compound, and the IC50 value is the point where the curve crosses 50 POC.
Chain of recombinant human FGFR2 cytoplasmic domain (amino acids 403-822) (P21802 402-821): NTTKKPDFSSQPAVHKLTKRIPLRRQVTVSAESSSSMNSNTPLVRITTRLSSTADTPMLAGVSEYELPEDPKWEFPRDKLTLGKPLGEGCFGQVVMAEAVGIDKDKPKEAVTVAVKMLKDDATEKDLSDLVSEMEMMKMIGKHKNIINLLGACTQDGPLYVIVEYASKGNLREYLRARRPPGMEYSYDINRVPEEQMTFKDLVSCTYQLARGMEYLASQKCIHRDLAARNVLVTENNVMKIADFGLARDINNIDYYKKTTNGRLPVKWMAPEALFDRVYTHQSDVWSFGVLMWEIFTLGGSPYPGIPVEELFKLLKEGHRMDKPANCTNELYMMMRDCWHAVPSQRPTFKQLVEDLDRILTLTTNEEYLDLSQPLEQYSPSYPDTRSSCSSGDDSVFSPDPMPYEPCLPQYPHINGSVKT

Assay [5] concerns the target recombinant human FGFR3 (amino acids R397-T806) (Homo sapiens (Human), UniProt P22607). As to the kind of experiment: FGFR3 enzyme activity assay (LanthaScreen TR-FRET). The assay is classed as biochemical. Particulars: 25 μM ATP, 10 min incubation at 22° C., average of multiple determinations if made, read-out: FGFR3 Enz FRET IC50. How it is done:
FGFR3 kinase activity was measured by the Invitrogen LanthaScreen™ Assay technology which directly measures the amount of substrate phosphorylation by TR-FRET using a fluorescently-labeled peptide and Europium-labeled antibody. Briefly, […] N-terminal GST-HIS6 fusion protein with a 3C cleavage site recombinant human FGFR3 (amino acids R397-T806) (ProQinase Cat. No. 1068-0000-1) was incubated with 100 nM Alexa Fluor® 647-Poly-GT Peptide Substrate (Life Technologies Cat. No. PV5836) and 25 μM ATP along with test compound in a buffer consisting of 250 mM HEPES, 25 mM MgCl2, 0.05% TritonX-100, pH 7.5, and 2% DMSO. […] After a 10 minute incubation at 22° C., an equal volume of 2 nM LanthaScreen® Eu-PY20 Antibody (Life Technologies Cat. No. PV5691) and 10 mM EDTA were added to quench the kinase reaction and start the detection reaction. After an additional 60 minute incubation at 22° C., the reaction was measured using a PerkinElmer EnVision multimode plate reader via TR-FRET dual wavelength detection, and the percent of control (POC) calculated using a ratiometric emission factor. 100 POC was determined using no test compounds and 0 POC was determined using no enzyme. The POC values were fit to a 4-parameter logistic curve as a function of the concentration of the compound, and the IC50 value is the point where the curve crosses 50 POC.

Assay [6] has as its target FGFR1 (SEQ ID NO: 1, amino acids 458-765) (Homo sapiens (Human), UniProt P11362). The assay can be described thus: LC/MS FGFR1 kobs assay (covalent protein modification). Particulars: 500 nM FGFR1, 3 μM compound. The assay is classed as binding. As to the method: (§2) The LC/MS FGFR1 and FGFR3 kobs assays were conducted as follows. […] At each time point, the reaction was quenched with 20 μL of 0.4% formic acid. The extent of protein modification by each compound was determined by LC/MS on an Agilent Technologies 6520 Q-TOF LC/MS. Protein signals were then automatically deconvoluted using Agilent Masshunter software. Deconvoluted mass signals were exported to Tibco Spotfire data analysis program for further processing and normalization.
(§3) Data analysis included five steps. First, the signals for the “DMSO Controls” were analyzed to determine the percent of signal associated with unmodified FGFR1 or FGFR3 at each time point. Next, the percent of the signal associated with the covalent modification was determined. Third, the average nonmodified “DMSO Control” signal was used to normalize the modified protein signals at each time point. The percent of unmodified protein was fit to an exponential decay model where A0 is the Percent Unmodified at the start of the reaction, and kobs is the observed rate constant over the time period.

Assay [7] deals with FGFR3 (SEQ ID NO: 5, amino acids 449-759) (Homo sapiens (Human), UniProt P22607). As to the kind of experiment: LC/MS FGFR3 kobs assay (covalent protein modification). The assay is classed as binding. Particulars: 500 nM FGFR3, 3 μM compound. How it is done:
as §2, §3
Table EC contains kobs values for compounds tested in these assays, presented as the average of multiple determinations if multiple determinations were made. ND=not determined.

The structures appear in SMILES notation.

Chain of recombinant human FGFR1 catalytic domain (amino acids 308-731) (P11362 other isoform, or with tags, fused parts or gaps): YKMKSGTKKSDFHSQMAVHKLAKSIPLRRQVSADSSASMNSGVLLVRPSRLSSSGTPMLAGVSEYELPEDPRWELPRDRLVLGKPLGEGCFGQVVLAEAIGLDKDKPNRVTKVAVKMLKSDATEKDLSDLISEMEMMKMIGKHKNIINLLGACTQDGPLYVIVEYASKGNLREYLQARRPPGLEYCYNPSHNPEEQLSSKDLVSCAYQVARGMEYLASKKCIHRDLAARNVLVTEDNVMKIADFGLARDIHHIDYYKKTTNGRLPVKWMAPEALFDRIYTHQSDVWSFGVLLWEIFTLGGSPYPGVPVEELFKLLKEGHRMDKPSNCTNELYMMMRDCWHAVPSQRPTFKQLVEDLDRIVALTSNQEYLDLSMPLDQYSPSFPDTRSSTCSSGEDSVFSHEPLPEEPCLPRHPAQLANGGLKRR
Chain of recombinant human FGFR3 (amino acids R397-T806) (P22607 397-806): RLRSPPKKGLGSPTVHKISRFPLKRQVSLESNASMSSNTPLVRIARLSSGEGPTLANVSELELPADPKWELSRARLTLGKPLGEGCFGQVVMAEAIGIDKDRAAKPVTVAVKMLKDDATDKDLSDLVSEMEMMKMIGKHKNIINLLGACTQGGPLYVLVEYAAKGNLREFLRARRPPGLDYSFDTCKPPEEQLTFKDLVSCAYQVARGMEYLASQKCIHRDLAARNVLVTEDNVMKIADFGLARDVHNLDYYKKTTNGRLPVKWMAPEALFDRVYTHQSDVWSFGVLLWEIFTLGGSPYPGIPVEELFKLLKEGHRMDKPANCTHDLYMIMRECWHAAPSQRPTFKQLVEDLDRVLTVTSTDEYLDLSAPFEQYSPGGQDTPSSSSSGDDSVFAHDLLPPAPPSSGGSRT
Chain of FGFR3 (SEQ ID NO: 5, amino acids 449-759) (P22607 449-759): as the sequence (P22607 449-759) above
Chain of FGFR1 (SEQ ID NO: 1, amino acids 458-765) (P11362 458-765): as the sequence (P11362 458-765) above

As usually defined, the IC50 is the point on the concentration scale where inhibition reaches its midpoint. As to `C=CC(=O)N1CCN(C(=O)N2CCC(n3cc(-c4cc(OC)c5c(C#N)cnn5c4)cn3)CC2)CC1` [Example 2, 6-(1-(1-(4-acryloylpiperazine-1-carbonyl)piperidin-4-yl)-1H-pyrazol-4-yl)-4-methoxypyrazolo[1,5-a]pyridine-3-carbonitrile], the IC50 was 45 nM in assay [1]; 4 nM in assay [2]; 4 nM in assay [3]; 14 nM in assay [4]; 4 nM in assay [5]. Besides, the “FGFR1 Enz kobs” value in assay [6] amounted to 0.00076 min⁻¹. Besides, in assay [7], the “FGFR3 Enz kobs” value was 0.00444 min⁻¹.
`C=CC(=O)N[C@H]1C[C@H](C(=O)N2CC[C@@H](n3cc(-c4cc(OC)c5c(C#N)cnn5c4)cn3)C2)C1` [Example 60, N-((1R,3r)-3-((R)-3-(4-(3-cyano-4-methoxypyrazolo[1,5-a]pyridin-6-yl)-1H-pyrazol-1-yl)pyrrolidine-1-carbonyl)cyclobutyl)acryl-amide]: the IC50 in assay [1] was determined as 203 nM; in assay [2], 32 nM; in assay [3], 31 nM; in assay [4], 7 nM; in assay [5], 7 nM. In addition, the “FGFR3 Enz kobs” value in assay [7] stood at 0.00083 min⁻¹.
In the case of `C=CC(=O)N[C@H]1C[C@@H](C(=O)N2CC[C@@H](n3cc(-c4cc(OC)c5c(C#N)cnn5c4)cn3)C2)C1` [Example 61, N-((1S,3s)-3-((R)-3-(4-(3-cyano-4-methoxypyrazolo[1,5-a]pyridin-6-yl)-1H-pyrazol-1-yl)pyrrolidine-1-carbonyl)cyclobutyl)acryl-amide], the IC50 came out at 346 nM in assay [1]; 61 nM in assay [2]; 28 nM in assay [3]; 6 nM in assay [4]; 5 nM in assay [5]. Besides, the “FGFR3 Enz kobs” value in assay [7] is 0.00064 min⁻¹.
For `C=CC(=O)N1CCC[C@@H](C(=O)N2CC[C@H](n3cc(-c4cc(OC)c5c(C#N)cnn5c4)cn3)C2)C1` [Example 64, 6-(1-((S)-1-((R)-1-acryloylpiperidine-3-carbonyl)pyrrolidin-3-yl)-1H-pyrazol-4-yl)-4-methoxypyrazolo[1,5-a]pyridine-3-carbonitrile], the IC50 worked out at 94 nM in assay [1]; 20 nM in assay [2]; 23 nM in assay [3]; 5 nM in assay [4]; 2 nM in assay [5]. Also, in assay [7], the “FGFR3 Enz kobs” value came to 0.00074 min⁻¹.
Turning to `C=CC(=O)N[C@H]1CC[C@H](C(=O)N2CC[C@H](n3cc(-c4cc(OC)c5c(C#N)cnn5c4)cn3)C2)CC1` [Example 65, N-((1S,4r)-4-((S)-3-(4-(3-cyano-4-methoxypyrazolo[1,5-a]pyridin-6-yl)-1H-pyrazol-1-yl)pyrrolidine-1-carbonyl)cyclohexyl)acryl-amide], the IC50 in assay [1] is 177 nM; in assay [2] it was 56 nM; in assay [3], 26 nM; in assay [4] it was 6 nM; in assay [5] it was 3 nM. Besides, in assay [7], the “FGFR3 Enz kobs” value was found to be 0.0002 min⁻¹.
For `C=CC(=O)N[C@H]1C[C@H](C(=O)N2CC[C@H](n3cc(-c4cc(OC)c5c(C#N)cnn5c4)cn3)C2)C1` [Example 74, N-((1S,3r)-3-((S)-3-(4-(3-cyano-4-methoxypyrazolo[1,5-a]pyridin-6-yl)-1H-pyrazol-1-yl)pyrrolidine-1-carbonyl)cyclobutyl)acryl-amide], the 50% inhibitory concentration (IC50) turned out to be 18 nM in assay [1]; 3 nM in assay [2]; 19 nM in assay [3]; 6 nM in assay [4]; 2 nM in assay [5]. In addition, the “FGFR3 Enz kobs” value in assay [7] turned out to be 0.00063 min⁻¹.
`C=CC(=O)N[C@H]1C[C@H](C(=O)N2CC(n3cc(-c4cc(OC)c5c(C#N)cnn5c4)cn3)C2)C1` [Example 79, N-((1r,3r)-3-(3-(4-(3-cyano-4-methoxypyrazolo[1,5-a]pyridin-6-yl)-1H-pyrazol-1-yl)azetidine-1-carbonyl)cyclobutyl)acryl-amide]: the IC50 stood at 447 nM in assay [1]; 79 nM in assay [2]; 36 nM in assay [3]; 11 nM in assay [4]; 10 nM in assay [5]. Besides, the “FGFR3 Enz kobs” value in assay [7] was 0.00116 min⁻¹.
Regarding `CC#CC(=O)N1CC(C(=O)N2CCC(n3cc(-c4cc(OC)c5c(C#N)cnn5c4)cn3)CC2)C1` [Example 139, 6-(1-(1-(1-(but-2-ynoyl)azetidine-3-carbonyl)piperidin-4-yl)-1H-pyrazol-4-yl)-4-methoxypyrazolo [1,5-a]pyridine-3-carbonitrile], the IC50 was found to be 104 nM in assay [1], 11 nM in assay [2], 13 nM in assay [3] and 4 nM in assay [5]. For the same molecule, the “FGFR1 Enz kobs” value in assay [6] came to 0.00047 min⁻¹. In addition, in assay [7], the “FGFR3 Enz kobs” value is 0.00281 min⁻¹.
